{
  "source": "paper PMC10541198",
  "about": "“Specific quinone reductase 2 inhibitors reduce metabolic burden and reverse Alzheimer’s disease phenotype in mice” (The Journal of Clinical Investigation, 2023)",
  "key": {"Amyloid β 42": {"tested_on": "Amyloid β 42", "assay": "Amyloid β 42 ELISA, whole brain soluble and insoluble fractions", "assay_type": "in vivo, mouse", "parameters": "Sup. Fig. 6-6A, individual animal values / Sup. Fig. 6-6B, individual animal values / Sup. Fig. 6-6D, individual animal values / Sup. Fig. 6-6G, individual animal values / Sup. Fig. 6-6H, individual animal values: unit not given here", "conditions": "for Insoluble amyloid β 42 / Ratio of soluble- to insoluble amyloid β 42 / Soluble amyloid β 42: whole brain, 5xFAD 1 month", "description": "Following completion of treatment with YB-537 or vehicle for 1 month in drinking water, mice were sacrificed, and brains were quickly removed and placed on ice. Brains were then bisected, and the cerebellum removed. Both hemispheres were then flash frozen in liquid nitrogen, with one hemisphere being used for Amyloid β 42 detection and the other used for WB. For Amyloid β 42 detection the hemisphere was first weighed, and then homogenised on ice using 1 mL of 0.1% Triton X-100 in TBS with complete protease inhibitor (Roche) and phosphatase inhibitor cocktail (Roche). Homogenates were then centrifuged at 100,000g for 1 h at 4° C, and supernatant containing t he soluble fraction of Amyloid β 42 was collected and stored at - 20° C overnight. The pellet, containing insoluble Amyloid β 42 was re - suspended in 1 mL of 5M guanidine HCl, placed on a rocker at RT f or 2h, and then stored overnight at 4° C, with later storage being done at -20° C. The insoluble fraction was then diluted 1:5 in TBS, and centrifuged for 30 min at 13,000g and 4° C. The resulting supernatant was then used to quantify the insoluble fraction. Protein determination was done on both soluble and insoluble fractions thus prepared, using a BCA kit (Thermo). Human Amyloid (aa1- 42) Quantikine ELISA Kit was then used as per the manufacturer’s instructions (R&D Systems, DAB142). Results obtained were then quantified as ng Amyloid β 42 / mL sample / brain hemisphere weight.\nExperimental grouping was randomly allocated, in both rats and mice. The size for each group was based on previously published results by means of similar methods, with the use of an online power calculator (https://www.stat.ubc.ca/~rollin/stats/ssize/n2.html). Shapiro- Wilk normality tests were done for the collected data. Anal ysi s of normally distributed dat a was done using par am et ri c t ests (i .e. - unpaired students t-test, one-way ANOVA followed by Tukey’s or Sidak post hoc anal ys i s) and for data not normally"}, "5xFAD mice": {"tested_on": "5xFAD mice", "assay": "Novel object recognition in 5xFAD mice", "assay_type": "in vivo, mouse", "parameters": "key: (novel − familiar)/(novel + familiar) exploration time, −1 to 1", "conditions": "5xFAD 1 month", "description": "We next aimed to test the effect of QR2 inhibition in AD model mice using YB-537, taking advantage of its extremely high specificity, solubility, and lack of toxicity. First, we determined YB-537 pharmacokinetics (PK) and oral bioavailability and assessed any acute observable toxicity in mice. […] We therefore opted to chronically deliver YB-537 to AD-model mice via their drinking water, so they may freely ingest the inhibitor at 50 mg/kg, with minimal intervention or trauma, for 1 month. We chose 9-month-old 5xFAD ([27]) male and female mice in double-blind experiments, so that well-progressed symptoms and pathologies would be present, to mimic clinically relevant cases in human patients ([35]), as has been previously described in this mouse model. Other than an improvement in nest quality ([36]) over time seen in animals receiving YB-537 (starting at age 8 months and ending at age 9 months), no changes to general physical parameters or wellbeing were observed over the 1 month of YB-537 ingestion (Supplemental Figure 6, A–J). […] Since learning in this paradigm was slow, and performance was poor even following 6 days of training (using 4 learning trials a day), a test day was not carried out and instead only the learning rate was measured. […]\nFollowing a 10 minute exploration of a 50 × 50 cm open-field arena, mice were returned to the arena the next day, which contained 2 identical objects. […] Mouse movement, exploration, and nuzzling was automatically recorded with an Ikegami ICD-49E camera with EthoVision 14 (Noldus Information Technology). Discrimination of the novel object was assessed by calculating (time exploring novel object – time exploring familiar object)/(time exploring novel object + time exploring familiar object). […]\nMice were individually placed within a cage and taken to a dimly lit room containing an open field arena 50 x 50 cm in size. […] Th e fl oor was ei ther whit e or black,dependingon mous e coat c ol or, to allow automatic analysisof movement par am et ers, apar t from rearing which was manually counted. […]"}},
  "note": "“And” between values parts separate entries of the source, which are not always exact repeats. Equal entries are not always repeated.",
  "data": [
    {"smiles": "Cc1ccc(-c2cn3cccc(C)c3n2)cc1S(=O)(=O)N1CCNCC1", "note": "[YB-537]", "values": [
      {"measurement": "Sup. Fig. 6-6A, individual animal values", "setting": "Amyloid β 42; 5xFAD whole brain, all animals", "value": "0.36 and 0.35 and 1.82 and 1.07 and 0.33 and 5.68 and 2.65 and 2.02 and 0.56"},
      {"measurement": "Sup. Fig. 6-6B, individual animal values", "setting": "Amyloid β 42; 5xFAD whole brain, all animals", "value": "31.16 and 54.15 and 11052.63 and 8070.79 and 40.92 and 4330.77 and 6642.89 and 15767.97 and 26.71"},
      {"measurement": "Sup. Fig. 6-6C, individual animal values", "setting": "Amyloid β 42; 5xFAD whole brain, all animals, ratio of 6-6A to 6-6B values", "value": "0.0114 and 0.0064 and 0.000165 and 0.000133 and 0.0080 and 0.0013 and 0.0004 and 0.000128 and 0.0210"},
      {"measurement": "Sup. Fig. 6-6D, individual animal values", "setting": "Amyloid β 42; 5xFAD whole brain, first subset of the 6-6A animals (sex not given)", "value": "1.07 and 0.33 and 5.68 and 2.65 and 0.56 and 0.35"},
      {"measurement": "Sup. Fig. 6-6F, individual animal values", "setting": "Amyloid β 42; 5xFAD whole brain, first subset of the 6-6C animals (sex not given), ratio", "value": "0.000133 and 0.0080 and 0.0013 and 0.0004 and 0.0210 and 0.0064"},
      {"measurement": "Sup. Fig. 6-6G, individual animal values", "setting": "Amyloid β 42; 5xFAD whole brain, second subset of the 6-6A animals (sex not given)", "value": "2.02 and 0.36 and 1.82"},
      {"measurement": "Sup. Fig. 6-6H, individual animal values", "setting": "Amyloid β 42; 5xFAD whole brain, second subset of the 6-6B animals (sex not given)", "value": "15767.97 and 31.16 and 11052.63"},
      {"measurement": "Sup. Fig. 6-6I, individual animal values", "setting": "Amyloid β 42; 5xFAD whole brain, second subset of the 6-6C animals (sex not given), ratio", "value": "0.000128 and 0.0114 and 0.000165"},
      {"measurement": "Insoluble amyloid β 42", "setting": "Amyloid β 42; both sexes", "value": "insignificantly reduced"},
      {"measurement": "Ratio of soluble- to insoluble amyloid β 42", "setting": "Amyloid β 42; both sexes", "value": "insignificantly increased"},
      {"measurement": "Soluble amyloid β 42", "setting": "Amyloid β 42; both sexes", "value": "insignificantly reduced"},
      {"measurement": "Insoluble amyloid β 42", "setting": "Amyloid β 42; female", "value": "insignificantly reduced"},
      {"measurement": "Soluble amyloid β 42", "setting": "Amyloid β 42; female", "value": "insignificantly reduced"},
      {"measurement": "Insoluble amyloid β 42", "setting": "Amyloid β 42; male", "value": "insignificantly reduced"},
      {"measurement": "Ratio of soluble- to insoluble amyloid β 42", "setting": "Amyloid β 42; male", "value": "insignificantly increased"},
      {"measurement": "Soluble amyloid β 42", "setting": "Amyloid β 42; male", "value": "insignificantly reduced"},
      {"measurement": "novel object discrimination (individual mice)", "setting": "5xFAD mice; both sexes", "value": "-0.101 and 0.504 and 0.236 and 0.249 and -0.330 and 0.874 and 0.145 and -0.163 and -0.038 and -0.010 and 0.265 and -0.414 and 0.439 and 0.710 and 0.259 and 0.231"},
      {"measurement": "novel object discrimination (individual mice)", "setting": "5xFAD mice; females", "value": "0.504 and 0.236 and 0.439 and 0.710 and 0.259 and 0.231 and -0.101"},
      {"measurement": "novel object discrimination (individual mice)", "setting": "5xFAD mice; males", "value": "-0.038 and -0.010 and 0.265 and -0.414 and 0.249 and -0.330 and 0.874 and 0.145 and -0.163"}
    ]}
  ]
}
